{"source": "ChEMBL document CHEMBL4000244", "about": "“Probing A-form DNA: A fluorescent aminosugar probe and dual recognition by anthraquinone-neomycin conjugates” (Bioorg Med Chem, 2017)", "key": {"[1]": {"assay": "Binding affinity to 5'-GCCGGGGC-3' DNA hairpin assessed as change in fluorescence intensity at 1 uM after 45 mins by fluorescence quenching analysis relative to control"}, "[2]": {"assay": "Binding affinity to 5'-GGGCCGCG-3' DNA hairpin assessed as change in fluorescence intensity at 1 uM after 45 mins by fluorescence quenching analysis relative to control"}, "[3]": {"assay": "Binding affinity to 5'-GGCCGCGC-3' DNA hairpin assessed as change in fluorescence intensity at 1 uM after 45 mins by fluorescence quenching analysis relative to control"}, "[4]": {"assay": "Binding affinity to 5'-CGGGGGGC-3' DNA hairpin assessed as change in fluorescence intensity at 1 uM after 45 mins by fluorescence quenching analysis relative to control"}, "[5]": {"assay": "Binding affinity to 5'-GGGGCGGG-3' DNA hairpin assessed as change in fluorescence intensity at 1 uM after 45 mins by fluorescence quenching analysis relative to control"}, "[6]": {"assay": "Binding affinity to 5'-CGGCCCGG-3' DNA hairpin assessed as change in fluorescence intensity at 1 uM after 45 mins by fluorescence quenching analysis relative to control"}, "[7]": {"assay": "Binding affinity to 5'-CGCGCCCC-3' DNA hairpin assessed as change in fluorescence intensity at 1 uM after 45 mins by fluorescence quenching analysis relative to control"}, "[8]": {"assay": "Binding affinity to 5'-GGGGCGCC-3' DNA hairpin assessed as change in fluorescence intensity at 1 uM after 45 mins by fluorescence quenching analysis relative to control"}, "[9]": {"assay": "Binding affinity to 5'-CCCCGCCG-3' DNA hairpin assessed as change in fluorescence intensity at 1 uM after 45 mins by fluorescence quenching analysis relative to control"}, "[10]": {"assay": "Binding affinity to 5'-GGCGCCCG-3' DNA hairpin assessed as change in fluorescence intensity at 1 uM after 45 mins by fluorescence quenching analysis relative to control"}, "[11]": {"assay": "Binding affinity to 5'-GGGGCCCG-3' DNA hairpin assessed as change in fluorescence intensity at 1 uM after 45 mins by fluorescence quenching analysis relative to control"}, "[12]": {"assay": "Binding affinity to 5'-GGGCGCGC-3' DNA hairpin assessed as change in fluorescence intensity at 1 uM after 45 mins by fluorescence quenching analysis relative to control"}, "[13]": {"assay": "Binding affinity to 5'-GCGCGGGG-3' DNA hairpin assessed as change in fluorescence intensity at 1 uM after 45 mins by fluorescence quenching analysis relative to control"}, "[14]": {"assay": "Binding affinity to 5'-CGGCCCCC-3' DNA hairpin assessed as change in fluorescence intensity at 1 uM after 45 mins by fluorescence quenching analysis relative to control"}, "[15]": {"assay": "Binding affinity to 5'-GGGGGGCG-3' DNA hairpin assessed as change in fluorescence intensity at 1 uM after 45 mins by fluorescence quenching analysis relative to control"}, "[16]": {"assay": "Binding affinity to 5'-CGGGCGCC-3' DNA hairpin assessed as change in fluorescence intensity at 1 uM after 45 mins by fluorescence quenching analysis relative to control"}, "[17]": {"assay": "Binding affinity to 5'-GGGCCGCC-3' DNA hairpin assessed as change in fluorescence intensity at 1 uM after 45 mins by fluorescence quenching analysis relative to control"}, "[18]": {"assay": "Binding affinity to 5'-GCCCCGCC-3' DNA hairpin assessed as change in fluorescence intensity at 1 uM after 45 mins by fluorescence quenching analysis relative to control"}, "[19]": {"assay": "Binding affinity to 5'-GCGCCCGC-3' DNA hairpin assessed as change in fluorescence intensity at 1 uM after 45 mins by fluorescence quenching analysis relative to control"}, "[20]": {"assay": "Binding affinity to 5'-GCCCGCCG-3' DNA hairpin assessed as change in fluorescence intensity at 1 uM after 45 mins by fluorescence quenching analysis relative to control"}, "[21]": {"assay": "Binding affinity to 5'-CCGGCCGG-3' DNA hairpin assessed as change in fluorescence intensity at 1 uM after 45 mins by fluorescence quenching analysis relative to control"}, "[22]": {"assay": "Binding affinity to 5'-GCGGGGCG-3' DNA hairpin assessed as change in fluorescence intensity at 1 uM after 45 mins by fluorescence quenching analysis relative to control"}, "[23]": {"assay": "Binding affinity to 5'-GGCCGCGG-3' DNA hairpin assessed as change in fluorescence intensity at 1 uM after 45 mins by fluorescence quenching analysis relative to control"}, "[24]": {"assay": "Binding affinity to 5'-CGCCCGCC-3' DNA hairpin assessed as change in fluorescence intensity at 1 uM after 45 mins by fluorescence quenching analysis relative to control"}, "[25]": {"assay": "Binding affinity to 5'-GGCGGGGC-3' DNA hairpin assessed as change in fluorescence intensity at 1 uM after 45 mins by fluorescence quenching analysis relative to control"}, "[26]": {"assay": "Binding affinity to 5'-GGGCCGGG-3' DNA hairpin assessed as change in fluorescence intensity at 1 uM after 45 mins by fluorescence quenching analysis relative to control"}, "[27]": {"assay": "Binding affinity to 5'-GGGCGCCC-3' DNA hairpin assessed as change in fluorescence intensity at 1 uM after 45 mins by fluorescence quenching analysis relative to control"}, "[28]": {"assay": "Binding affinity to 5'-GCGGGCCG-3' DNA hairpin assessed as change in fluorescence intensity at 1 uM after 45 mins by fluorescence quenching analysis relative to control"}, "[29]": {"assay": "Binding affinity to 5'-CCGCCGCG-3' DNA hairpin assessed as change in fluorescence intensity at 1 uM after 45 mins by fluorescence quenching analysis relative to control"}, "[30]": {"assay": "Binding affinity to 5'-GGGGCGCG-3' DNA hairpin assessed as change in fluorescence intensity at 1 uM after 45 mins by fluorescence quenching analysis relative to control"}, "[31]": {"assay": "Binding affinity to 5'-CGGCCGGG-3' DNA hairpin assessed as change in fluorescence intensity at 1 uM after 45 mins by fluorescence quenching analysis relative to control"}, "[32]": {"assay": "Binding affinity to 5'-CCCGGCGG-3' DNA hairpin assessed as change in fluorescence intensity at 1 uM after 45 mins by fluorescence quenching analysis relative to control"}, "[33]": {"assay": "Binding affinity to 5'-CCGCGGGC-3' DNA hairpin assessed as change in fluorescence intensity at 1 uM after 45 mins by fluorescence quenching analysis relative to control"}, "[34]": {"assay": "Binding affinity to 5'-GGGGGGGG-3' DNA hairpin assessed as change in fluorescence intensity at 1 uM after 45 mins by fluorescence quenching analysis relative to control"}, "[35]": {"assay": "Binding affinity to 5'-CGGGGCCC-3' DNA hairpin assessed as change in fluorescence intensity at 1 uM after 45 mins by fluorescence quenching analysis relative to control"}, "[36]": {"assay": "Binding affinity to 5'-CCCCGGCG-3' DNA hairpin assessed as change in fluorescence intensity at 1 uM after 45 mins by fluorescence quenching analysis relative to control"}}}
{"smiles": "NCC1O[C@H](O[C@H]2[C@@H](O)[C@H](O[C@@H]3[C@@H](O)[C@H](N)C[C@H](N)[C@H]3O[C@H]3O[C@H](CN)[C@@H](O)[C@H](O)[C@H]3N)O[C@@H]2CSCCNC(=O)CCSCC(=O)Nc2ccc(-c3c4ccc(=O)cc-4oc4cc(O)ccc34)c(C(=O)O)c2)[C@H](N)[C@@H](O)[C@@H]1O", "note": "(stereo partly specified)", "values": [{"measurement": "Activity", "setting": "[1]", "result": 43.2, "unit": "%"}, {"measurement": "Activity", "setting": "[2]", "result": 39.6, "unit": "%"}, {"measurement": "Activity", "setting": "[3]", "result": 39.6, "unit": "%"}, {"measurement": "Activity", "setting": "[4]", "result": 32.2, "unit": "%"}, {"measurement": "Activity", "setting": "[5]", "result": 43.6, "unit": "%"}, {"measurement": "Activity", "setting": "[6]", "result": 54.4, "unit": "%"}, {"measurement": "Activity", "setting": "[7]", "result": 36.3, "unit": "%"}, {"measurement": "Activity", "setting": "[8]", "result": 51.4, "unit": "%"}, {"measurement": "Activity", "setting": "[9]", "result": 41.4, "unit": "%"}, {"measurement": "Activity", "setting": "[10]", "result": 43.7, "unit": "%"}, {"measurement": "Activity", "setting": "[11]", "result": 29.7, "unit": "%"}, {"measurement": "Activity", "setting": "[12]", "result": 58.3, "unit": "%"}, {"measurement": "Activity", "setting": "[13]", "result": 43.1, "unit": "%"}, {"measurement": "Activity", "setting": "[14]", "result": 29.6, "unit": "%"}, {"measurement": "Activity", "setting": "[15]", "result": 46.3, "unit": "%"}, {"measurement": "Activity", "setting": "[16]", "result": 52.5, "unit": "%"}, {"measurement": "Activity", "setting": "[17]", "result": 40, "unit": "%"}, {"measurement": "Activity", "setting": "[18]", "result": 40.2, "unit": "%"}, {"measurement": "Activity", "setting": "[19]", "result": 50.3, "unit": "%"}, {"measurement": "Activity", "setting": "[20]", "result": 43.8, "unit": "%"}, {"measurement": "Activity", "setting": "[21]", "result": 49.1, "unit": "%"}, {"measurement": "Activity", "setting": "[22]", "result": 45.2, "unit": "%"}, {"measurement": "Activity", "setting": "[23]", "result": 49.8, "unit": "%"}, {"measurement": "Activity", "setting": "[24]", "result": 42, "unit": "%"}, {"measurement": "Activity", "setting": "[25]", "result": 43.2, "unit": "%"}, {"measurement": "Activity", "setting": "[26]", "result": 37.5, "unit": "%"}, {"measurement": "Activity", "setting": "[27]", "result": 65.9, "unit": "%"}, {"measurement": "Activity", "setting": "[28]", "result": 40.9, "unit": "%"}, {"measurement": "Activity", "setting": "[29]", "result": 44, "unit": "%"}, {"measurement": "Activity", "setting": "[30]", "result": 43.4, "unit": "%"}, {"measurement": "Activity", "setting": "[31]", "result": 41.4, "unit": "%"}, {"measurement": "Activity", "setting": "[32]", "result": 39.8, "unit": "%"}, {"measurement": "Activity", "setting": "[33]", "result": 45.7, "unit": "%"}, {"measurement": "Activity", "setting": "[34]", "result": 27.2, "unit": "%"}, {"measurement": "Activity", "setting": "[35]", "result": 40.4, "unit": "%"}, {"measurement": "Activity", "setting": "[36]", "result": 50, "unit": "%"}]}
